Experimental data published in patent US9359311B2, “Substituted aromatic oligomers” (NEUROSCIOS GMBH, priority 2011, dated 2016).
“Also recorded” adds a separate entry of the source.

Legend:
[1] = system: PHF-tau doubly-phosphorylated at Thr231 and Ser235; test: Phosphorylation of Tau in neurites crossing amyloid plaques, AT180 IHC, hAPPSL Tg mice; type: in vivo, mouse
Procedure: (§1) Vehicle: Phosphate Buffered Saline (PBS; 6.7 mM PO4, 155 mM NaCl, pH=7.3-7.5) (BioWhittaker PBS from Lonza).
(§2) Test Item (T.I.): p-FTAA and P9707_003, diluted in vehicle from stock solution in deionized water (10 mg/ml).
(§3) Tg hAPPSL: Transgenic hAPPSL mice over-expressing hAPP(751) under the control of the murine Thy-1 promoter with a C57BL/6xDBA background.
(§4) 48 hAPP Tg mice plus 4 reserves allocated to 4 different treatment groups were treated with either vehicle only (control), p-FTAA or P9707_003. As an additional control, 12 nTg littermates of the hAPPSL mice (plus 1 reserve) were treated with vehicle only. Starting at 6.5 months of age, female hAPPSL mice were treated with vehicle only, p-FTAA (dosage: 1 or 10 mg/kg/day) or P9707_003 (dosage: 10 mg/kg/day) for 90 days. The Test Items (T.I.s) were administered in Vehicle. Compound and vehicle were administered twice daily i.p. for 90 days. Tg hAPPSL mice with a C57BL/6xDBA background and corresponding nTg littermates at an age of 6.5 months (+2 weeks) were randomly assigned to the treatment groups.
Histological evaluations were performed with six randomly chosen cryo-frozen brain hemispheres of treatment groups PBS Control, p-FTAA 1 mg/kg/day, p-FTAA 10 mg/kg/day, and P9707_003 10 mg/kg/day.
15 cryo-sections per level (altogether 5 levels), each 10 μm thick (Leica CM 3050S) were sagittally cut. Brain levels were chosen according to the morphology atlas “The Mouse Brain” from Paxinos and Franklin (2nd edition). The cutting of the five levels started with a random slice, then sampling was continued uniformly and systematically, always retaining 15 slices per level in series and discarding 100 μm in between the levels.
TAU phosphorylation was visualized immunohistochemically using the AT180 antibody. Clone AT180 recognizes PHF-tau doubly-phosphorylated at Thr231 and Ser235.
For determination of amyloid depositions 5 slices (1 from each level) per brain were stained and screened. From each slice five images were captured from 5 defined areas in the brain. The order of these positions reflect the time course of plaque deposition in the APPsl model, which starts in the frontal cortex (P11) at the age of 3 months and then spreads to the medial (P12) and dorsal cortex over age. At six months of age, plaques can be found in the medial cortex (P13), from then plaque load spreads into the hippocampal formation with hot spots in the subiculum (P14) and the dentate gyrus (P15) at the age of nine months.
(§5) Mosaic images for plaque load quantification including the whole cortex and hippocampus were recorded on a Zeiss AxioImager.Z1 microscope using high aperture lenses and an AxioVision 4.8 software driven AxioCam MRm (10× lens, 1× optocoupler). Plaques for AT180 quantifcation were imaged with a 20× lens. Detail images for qualitative figures are 40× image stacks collapsed to 2D by the extended depth of field function of AxioVision software.
Descriptive statistical analysis was performed on all evaluated parameters, Kolmogorov Smirnov test were performed to test normal distribution of data. Data in graphs are represented as mean±SEM.

[2] = system: amyloid depositions (plaques); test: Plaque number and plaque area in hAPPSL Tg mice (ThioflavinS staining); type: in vivo, mouse; details: twice daily i.p., 90 days, vs vehicle
Procedure: as §1, §2, §3
as §4, with “groups. […]” for “groups.”
Plaque load was quantified by staining with ThioflavinS staining of beta-sheet structures in a double incubation.
For determination of amyloid depositions 5 slices (1 from each level) per brain were stained and screened. Region areas (hippocampus and cortex) were measured and plaque surface area, number of plaques and mean size of objects within each region were quantified separately using automated image analysis software (Image Pro Plus, version 6.2).
as §5, with “Detail images for qualitative figures are 40× image stacks collapsed to 2D by the extended depth of field function of AxioVision software.” left out
Descriptive statistical analysis was performed on all evaluated parameters, Kolmogorov Smirnov test were performed to test normal distribution of data. […]

[3] = P9707_003 10 mg/kg/day, p-FTAA 1 or 10 mg/kg/day

SMILES: O=C(O)Cc1ccsc1-c1ccc(-c2sc(-c3ccc(-c4cc(CC(=O)O)c(-c5ccc(-c6sccc6CC(=O)O)s5)s4)s3)cc2CC(=O)O)s1 [Example 1, 2-(2-{5-[3-(Carboxymethyl)-5-{5-[4-(carboxymethyl)-5-{5-[3-(carboxymethyl)thiophen-2-yl]thiophen-2-yl}thiophen-2-yl]thiophen-2-yl}thiophen-2-yl]thiophen-2-yl}thiophen-3-yl)acetic acid]
- AT180 load ([1]; 10 mg P9707_003 treatment, plaque sides 2 and 4): significant reduction
- AT180 IR in plaques of younger history of origin (hippocampal formation, subiculum, dentate gyrus) ([1]; 90 days i.p., hAPPSL Tg mice): drastically reduced
- AT180 load at hippocampal plaques, reduced to ([1]; P9707_003 10 mg/kg/day, 90 days i.p.): approximately 45%
- reduction of AT180 ([1]; P9707_003 10 mg/kg/day, 90 days i.p., positions 4 and 5): more than 40%
- reduction of plaque number in the hippocampus ([2]; 10 mg/kg/day, ThioflavinS): 54%
- hippocampal plaque area percentage (ThioflavinS) [2, 3]: significantly lower plaque load; also recorded: reduced
- number of ThioflavinS positive objects (plaque number) in the hippocampus [2, 3]: reduced object number; also recorded: highly significant reduced
